Measurements: US20170172909A1, “Method Of Counteracting The Impact Of Chronic Stress On Skin” (ELC MANAGEMENT LLC, priority 2015, published 2017)
Several values for one entry are separate records, joined by “and”; a condition that tells them apart may be missing. Equal values may be shown once.

What was measured:
[1] = test system: progerin; assay: Progerin immunostaining of ex vivo skin explants; assay type: cell-based, human
Description: (§4) After fixation for 24 hours in buffered formalin, the samples were dehydrated and impregnated in paraffin using a Leica TP 1010 dehydration automat. The samples were then embedded using a Leica EG 1160 embedding station. 5-μm-thick sections were made using a Leica RM 2125 Minot-type microtome, and the sections were then mounted on Superfrost® histological glass slides.
(§5) The immunostaining was assessed by microscopical observation.
Progerin staining intensity was measured in a similar way as for p21.

[2] = test system: p21; assay: p21 immunostaining of ex vivo skin explants; assay type: cell-based, human
Description: as §4, §5
The evaluation of the p21 immunostained pictures was based on both the number of cells that were stained as well as the staining intensity in each cell.

[3] = test system: skin explants from the abdominal tissue; assay: General morphology of ex vivo skin explants, cortisol-induced premature senescence (Masson's trichrome); assay type: cell-based, human
Description: Thirty three skin explants from the abdominal tissue of a donor, of an average diameter of 10 mm (±1 mm) were prepared.
The formula with 0.1% cortisol was applied topically on days 2, 5, 6 and 7.
On day 0, the three explants from the batch BO were collected and cut in two parts. One half was fixed in buffered formalin, and the other half was frozen at −80° C. On day 9, three explants from all other batches were collected and processed in the same way.
Sections were then mounted on Superfrost® plus silanized glass slides. The microscopical observations were made using a Leica DMLB or Orthoplan microscope. Pictures were digitized with a numeric DP72 Olympus camera with CellD storing software.
The observation of the general morphology was realized after staining of paraffinized sections according to Masson's trichrome, Goldner variant.

[4] = test system: elastin; assay: Elastin release by HDFs (Elastin Elisa); assay type: cell-based, human; details: 2.5 mg/ml, 72 hours
Description: (§1) HDFs, at passage 4, were plated in 96 well plates. After the cells reached confluency they were placed under starvation conditions for 48 hours. Cells then were treated with test materials in cell medium for 72 hours after which the medium was collected for analysis of elastin (Elastin Elisa assay, SOP D.33). Cell viability also was measured using the MTT assay (SOP D.29). Statistical analysis was performed with an ANOVA+Fisher LSD post hoc test. A p value of less than 0.05 was considered significant.
(§2) The results are presented as pg/ml elastin corrected for viability. The percent increase in elastin release is calculated as:
(§3) % increase=[Amount Elastinactive/Amount Elastincontrol]×100−100

[5] = test system: Human dermal fibroblasts (HDFs); assay: Free floating fibroblast-populated collagen lattice (FPCL) contraction; assay type: cell-based
Description: Human dermal fibroblasts (HDFs, passages 6-7) were maintained in Falcon 75 cm^2 tissue culture flasks in DMEM supplemented with 10% FBS. Cells were harvested from monolayer culture, and placed in 6-well culture plates (1×10^5 cells/well). Cells were pretreated with 25 μM hydrocortisone or with a combination of 25 μM hydrocortisone and different concentrations of test materials for 24 hours before being applied to free floating fibroblast populated collagen lattices.
Gels containing collagen HDFs were prepared as described by Tomasek, J. J., et al. (Fibroblast contraction occurs on release of tension in attached collagen lattices: dependency on an organized actin cytoskeleton and serum. Anat. Rec., 1992, March; 232(3):359-68), incorporated herein by reference in its entirety, with modifications as follows. Briefly, collagen solution (Corning, Rat tail, 354236), concentrated DMEM, 0.1N NaOH and FBS, were gently mixed at 4° C., giving a suspension at a final density of 5×10^5 cells and 3 mg/ml collagen. The collagen/cell suspension (2 ml total) was poured on 35 mm-uncoated dish and allowed to polymerize for 45 minutes at 37° C. Then lattices were released and gels were allowed to float in the medium. […]
Fibroblast contractility was assessed by measuring changes in the surface area of collagen I gels mediated by fibroblasts. […] Thereafter, lattice diameter was measured. […]

[6] = test system: fibroblasts from abdominal skin; assay: GlaSbox contractile forces on collagen lattices, with or without cortisol, abdominal fibroblasts; assay type: cell-based, human; details: cortisol 250 ng/ml
Text: In this study, the GlaSbox® system was used to analyze the effect of cortisol, with and without test materials, on the contractile forces generated by fibroblasts populating collagen lattices. The GlaSbox® device differs from other collagen lattice systems in that it uses a fixed, non-floating collagen lattice where the diameter of the collagen lattice remains constant but electrodes measure the actual contractile forces exerted by the cells on the collagen lattice.
Fibroblasts were obtained from eyelid and abdominal skin of Chinese female donors. The effect of Biobenefity and Albizia julibrissin on the contractile forces of fibroblasts originating from eyelid, with or without exposure to cortisol (250 ng/ml), were evaluated.
Two fibroblast cell types, one originating from eyelid and the other one from abdominal skin tissue, were purchased from Tebu-Bio (Boechout, Belgium). These cell types were isolated from different donors, each being a person. […] The forces are expressed as arbitrary units.
Each Glasbox® curve was fitted with GraphPad Prism® software to determine the area under the curve (AUC) and the maximum of contraction (Max). […] Data are expressed as mean±standard deviation. The measurement of contractile forces was analyzed by means of a variance analysis with two factors (group versus control and time). […]

[7] = test system: fibroblasts from eyelid; assay: GlaSbox contractile forces on collagen lattices, with or without cortisol, eyelid fibroblasts; assay type: cell-based, human; details: cortisol 250 ng/ml
Text: In this study, the GlaSbox® system was used to analyze the effect of cortisol, with and without test materials, on the contractile forces generated by fibroblasts populating collagen lattices. The GlaSbox® device differs from other collagen lattice systems in that it uses a fixed, non-floating collagen lattice where the diameter of the collagen lattice remains constant but electrodes measure the actual contractile forces exerted by the cells on the collagen lattice. Fibroblasts were obtained from eyelid and abdominal skin of Chinese female donors. The effect of Biobenefity and Albizia julibrissin on the contractile forces of fibroblasts originating from eyelid, with or without exposure to cortisol (250 ng/ml), were evaluated. Two fibroblast cell types, one originating from eyelid and the other one from abdominal skin tissue, were purchased from Tebu-Bio (Boechout, Belgium). These cell types were isolated from different donors, each being a person. The fibroblasts were embedded three-dimensionally in hydrated collagen gel lattices. […] The forces are expressed as arbitrary units. […] Data are expressed as mean±standard deviation. The measurement of contractile forces was analyzed by means of a variance analysis with two factors (group versus control and time). […]

[8] = test system: tropoelastin; assay: Tropoelastin synthesis by HDFs; assay type: cell-based, human; details: 5 pg/ml
Description: as §1, §2, §3

[9] = test system: fibrillin-1; assay: Fibrillin-1 release by HDFs (sandwich ELISA); assay type: cell-based, human; details: positive control, 100 ng/ml, 24 hours
Description: Fibrillins, glycoproteins secreted by fibroblasts, are essential for the formation of elastic fibers found in connective tissue. Test compounds Mitostime (extract of Laminaria digitata) and Milk Peptide Complex (MPC or whey protein, available from CLR, Germany) were evaluated for their capacity to stimulate the synthesis of fibrillin-1 in HDFs.
An aliquot of a selected fibroblast cell line (HDFs) was thawed, placed into culture, and allowed to establish good growth before passaging into a 24-well plate (5×10^4 cells/1 ml well). After overnight adhesion to the well, test compounds were added to the medium at three different concentrations and the cells were incubated for 24 hours. A positive control of 100 ng/ml TGFβ1, was included. The negative controls used were 0.1% BSA and 0.1% EtOH. After 24 hours, medium was harvested, centrifuged, and transferred to fibrillin-1 sandwich ELISA plates to determine the amount of fibrillin released.

[10] = test system: fibroblasts from an abdominoplasty; assay: GlaSbox contractile forces of fibroblasts on collagen lattices (stimulation, Example 3); assay type: cell-based, human; details: 2.5 ng/ml, 24 hours
Text: In this study, the GlaSbox® system was used to analyze the effect of cosmetic raw materials, TGFβ1, Taisoh Liquid B Jujube Extract (Ziziphus jujuba fruit), available from Ichimaru Pharcos, and Uplevity, available from Lipotec. TGFβ1, used in this study as a positive control, is known to play a role in cellular functions, including cell proliferation, differentiation, wound healing and matrix-related processes. Taisoh Liquid B Jujube Extract has been reported to stimulate wound healing. […]
Fibroblasts were embedded three-dimensionally in hydrated collagen gels composed of 6 volumes of 1.76× (DMEMc, NaHCO3, NaOH, antibiotics), 3 volumes rat tail type I collagen (2 mg/ml) and 1 volume of cellular suspension (8×10^5 cells/ml) using a modified version of the technique developed by Bell et al. (Production of a tissue-like structure by contraction of collagen lattices by human fibroblasts of different proliferative potential in vitro. Proc. Natl. Acad. Sci. USA 76, 1274-1278 (1979). The lattice mixture was poured into the rectangular culture plate of the GlaSbox® and polymerized in less than 30 minutes at 37° C. […] The forces were expressed as arbitrary units (AU) after 24 hours of measurement. […]

[11] = day 9, with 0.1% cortisol, Biwa leaf, Biobenefity, Juvinity 0.5% w/v, IBR Dormin 0.1% w/v
[12] = 0.1% cortisol, day 9, versus untreated

CC(C)=CCCC(C)=CCCC(C)=CCCC(C)=CCCC(C)O (stereo not shown) [Juvinity, Geranylgeranyl-2-propanol] was tested, and the “Effect on cortisol-induced increase in progerin staining intensity” value [1, 11] was “did not show a beneficial effect”, the “Effect on cortisol-induced increase in p21 staining intensity” value [2, 11] was “partially reduce” and the “General morphology of explants” value ([3]; day 9, absence of cortisol, Biwa leaf, Biobenefity, Juvinity 0.5% w/v, IBR Dormin 0.1% w/v in medium) was “altered morphology, with pycnotic nuclei and cellular spongiosis”. For the same compound, the “Effect on cortisol-induced morphology (epidermal thickness)” value ([3]; day 9, with topical 0.1% cortisol, Biwa leaf, Biobenefity, Juvinity 0.5% w/v, IBR Dormin 0.1% w/v) was “did not have any beneficial effect”.

For O=C[C@H](O)[C@H](O)[C@H](O)CO [Riboxyl, D-ribose], the “Increase in elastin synthesis versus untreated cells” value [4] was 66%.

With C[C@]12CCC(=O)C=C1CC[C@@H]1[C@@H]2[C@@H](O)C[C@@]2(C)[C@H]1CC[C@]2(O)C(=O)CO [cortisol] the “Decrease of lattice contraction versus untreated lattices” value ([5]; 25 μM, listed as hydrocortisone) was 11.8% and 9%, the “Decrease of lattice contraction versus untreated lattices” value ([5]; 50 μM) was 18% and the “Contractile forces (AUC and maximum contractile force)” value [6] was “significant decrease”. For the same compound, the Progerin staining intensity [1, 12] was “increased from weak to moderate”, the “Contractile forces (AUC and maximum contractile force)” value [7] was “significant decrease” and the “p21 staining intensity (semi-quantitative grading)” value [2, 12] was “from very weak to moderate”. The “General morphology of explants” value ([3]; 0.1% cortisol topically during 7 days (day 2 to day 9)) was “moderate epidermal atrophy”.

“TGFβ1: Transforming Growth Factor β, secreted protein used as a positive control” was tested, and the “Increase in tropoelastin synthesis versus untreated cells” value [8] was 175%, the “Fibrillin release at baseline level” value [9] was “stimulate the fibrillin release” and the “Increase of contractile forces (AUC)” value [10] was 25.5%. For the same compound, the “Increase of maximum contraction” value [10] was 26.0%.
